Earlier results as cited in US6749871B2, “Compositions for treating symptoms of urogenital/urological disorders” (Prater Herbs, L.L.C., priority 2002, dated 2004).

System: benign prostatic hyperplasia
Conditions: three-year clinical evaluation

Compound: CC(C)(C)NC(=O)[C@H]1CC[C@H]2[C@@H]3CC[C@H]4NC(=O)C=C[C@]4(C)[C@H]3CC[C@]12C [Finasteride]
- Improvement in urinary flow rate: 2.3 ml per second
- Participants with side effects such as decreased libido and impotence: about four to five percent
- Reduction in prostatic volume: about 27%
- Reduction in symptom score: 3.6 points
